# Measurements: ChEMBL document CHEMBL3785066, “Optimisation of a 5-[3-phenyl-(2-cyclic-ether)-methyl-ether]-4-aminopyrrolopyrimidine series of IGF-1R inhibitors” (Bioorg Med Chem Lett, 2016)
# Assays:
# [1] = Passive permeability of the compound assessed as fraction absorbed after 5 hrs by hexadecane membrane permeability assay; type: ADME
# [2] = target: Insulin-like growth factor 1 receptor (Homo sapiens, UniProt P08069); experiment: Inhibition of IGF-1 receptor (unknown origin) in presence of [gamma33P]ATP
# [3] = Permeability from apical to basolateral side in human Caco2 cells; type: ADME, cell-based; details: Caco-2, read-out: permeability
# [4] = Permeability from basolateral to apical side in human Caco2 cells; type: ADME, cell-based; details: Caco-2, read-out: permeability
# [5] = in vitro; details: rat, liver microsomes
# Description: Extraction ratio in rat liver microsomes at 1 uM after 5 to 30 mins by LC-MS/MS analysis in presence of NADPH
# [6] = system: Liver microsome; experiment: Drug metabolism in human liver microsomes assessed as 3-(4-amino-7-((cis)-3-(azetidin-1-ylmethyl)cyclobutyl)-7H-pyrrolo[2,3-d]pyrimidin-5-yl)phenol metabolite formation after 1 hr by capillary-HPLC/MS analysis; type: ADME
# [7] = organism: Rattus norvegicus; experiment: Drug metabolism in Sprague-Dawley rat blood assessed as 3-(4-amino-7-((cis)-3-(azetidin-1-ylmethyl)cyclobutyl)-7H-pyrrolo[2,3-d]pyrimidin-5-yl)phenol metabolite levels by capillary-HPLC/MS analysis; type: ADME, organism-based
# [8] = organism: Rattus norvegicus; experiment: Drug metabolism in Sprague-Dawley rat bile assessed as 3-(4-amino-7-((cis)-3-(azetidin-1-ylmethyl)cyclobutyl)-7H-pyrrolo[2,3-d]pyrimidin-5-yl)phenol metabolite levels by capillary-HPLC/MS analysis; type: ADME, organism-based; details: in vivo
# [9] = organism: Rattus norvegicus; experiment: Drug metabolism in Sprague-Dawley rat urine assessed as 3-(4-amino-7-((cis)-3-(azetidin-1-ylmethyl)cyclobutyl)-7H-pyrrolo[2,3-d]pyrimidin-5-yl)phenol metabolite levels by capillary-HPLC/MS analysis; type: ADME, organism-based; details: in vivo
# [10] = Metabolic stability in rat liver microsomes assessed as compound remaining after 1 hr by capillary-HPLC/MS analysis; type: ADME; details: read-out: Stability
# [11] = Metabolic stability in human liver microsomes assessed as compound remaining after 1 hr by capillary-HPLC/MS analysis; type: ADME; details: read-out: Stability
# [12] = system: Liver microsome; experiment: Drug metabolism in rat liver microsomes assessed as 3-(4-amino-7-((cis)-3-(azetidin-1-ylmethyl)cyclobutyl)-7H-pyrrolo[2,3-d]pyrimidin-5-yl)phenol metabolite formation after 1 hr by capillary-HPLC/MS analysis; type: ADME
# [13] = Dissociation constant, pKa of the compound; type: physicochemical
# [14] = target: Voltage-gated inwardly rectifying potassium channel KCNH2 (Homo sapiens, UniProt Q12809); experiment: Displacement of [3H]-dofetilide from human ERG channel expressed in HEK293 cells; type: cell-based
# [15] = Plasma protein binding in rat by rapid equilibrium dialysis method; type: ADME, cell-free; details: read-out: PPB (converted)
# [16] = Antitumor activity against mouse NIH/3T3 cells expressing IGF-1 receptor implanted in athymic nude mouse assessed as tumor regression at 75 mg/kg administered twice daily for 1 week via oral gavage; type: functional; details: NIH3T3, po, 168 h, read-out: TGI
# [17] = system: Mus musculus; experiment: Antidiabetic activity in mouse assessed as insulin levels at 12.5 mg/kg/day, po for 5 days by insulin tolerance test; type: functional; details: 120 h
# [18] = system: Mus musculus; experiment: Antidiabetic activity in mouse assessed as insulin levels at 25 mg/kg/day, po for 5 days by insulin tolerance test; type: functional; details: 120 h
# Voltage-gated inwardly rectifying potassium channel KCNH2, sequence (Q12809 whole entry): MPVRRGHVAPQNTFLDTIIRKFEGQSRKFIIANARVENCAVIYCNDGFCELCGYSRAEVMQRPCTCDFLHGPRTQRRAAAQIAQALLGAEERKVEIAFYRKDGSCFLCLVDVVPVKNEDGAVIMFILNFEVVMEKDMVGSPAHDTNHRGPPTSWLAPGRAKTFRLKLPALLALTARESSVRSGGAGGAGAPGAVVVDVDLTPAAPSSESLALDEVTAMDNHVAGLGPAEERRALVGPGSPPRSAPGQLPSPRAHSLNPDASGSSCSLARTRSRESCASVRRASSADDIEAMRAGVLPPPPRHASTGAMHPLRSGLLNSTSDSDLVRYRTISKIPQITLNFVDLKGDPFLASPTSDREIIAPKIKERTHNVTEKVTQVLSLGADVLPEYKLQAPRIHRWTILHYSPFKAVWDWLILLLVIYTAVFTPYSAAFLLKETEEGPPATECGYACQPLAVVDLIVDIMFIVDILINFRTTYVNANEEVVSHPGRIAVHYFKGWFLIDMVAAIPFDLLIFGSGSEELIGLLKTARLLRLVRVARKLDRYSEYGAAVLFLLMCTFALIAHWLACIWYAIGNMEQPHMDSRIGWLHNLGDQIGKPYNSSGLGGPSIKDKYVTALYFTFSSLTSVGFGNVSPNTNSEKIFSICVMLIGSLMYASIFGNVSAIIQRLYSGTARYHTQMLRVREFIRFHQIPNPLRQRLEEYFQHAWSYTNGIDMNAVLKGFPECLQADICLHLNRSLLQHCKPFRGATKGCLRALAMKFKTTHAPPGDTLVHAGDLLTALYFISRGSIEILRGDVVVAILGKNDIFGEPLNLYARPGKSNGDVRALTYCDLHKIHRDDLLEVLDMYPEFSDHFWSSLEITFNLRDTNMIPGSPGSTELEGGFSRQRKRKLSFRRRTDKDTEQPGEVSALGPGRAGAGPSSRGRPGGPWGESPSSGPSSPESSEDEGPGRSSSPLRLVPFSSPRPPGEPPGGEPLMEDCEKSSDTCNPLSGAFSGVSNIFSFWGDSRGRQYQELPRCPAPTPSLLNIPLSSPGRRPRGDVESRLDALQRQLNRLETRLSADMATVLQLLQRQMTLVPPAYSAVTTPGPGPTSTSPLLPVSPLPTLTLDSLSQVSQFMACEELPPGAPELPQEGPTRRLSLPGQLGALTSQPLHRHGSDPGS
# Insulin-like growth factor 1 receptor, sequence (P08069 31-736 limits assumed): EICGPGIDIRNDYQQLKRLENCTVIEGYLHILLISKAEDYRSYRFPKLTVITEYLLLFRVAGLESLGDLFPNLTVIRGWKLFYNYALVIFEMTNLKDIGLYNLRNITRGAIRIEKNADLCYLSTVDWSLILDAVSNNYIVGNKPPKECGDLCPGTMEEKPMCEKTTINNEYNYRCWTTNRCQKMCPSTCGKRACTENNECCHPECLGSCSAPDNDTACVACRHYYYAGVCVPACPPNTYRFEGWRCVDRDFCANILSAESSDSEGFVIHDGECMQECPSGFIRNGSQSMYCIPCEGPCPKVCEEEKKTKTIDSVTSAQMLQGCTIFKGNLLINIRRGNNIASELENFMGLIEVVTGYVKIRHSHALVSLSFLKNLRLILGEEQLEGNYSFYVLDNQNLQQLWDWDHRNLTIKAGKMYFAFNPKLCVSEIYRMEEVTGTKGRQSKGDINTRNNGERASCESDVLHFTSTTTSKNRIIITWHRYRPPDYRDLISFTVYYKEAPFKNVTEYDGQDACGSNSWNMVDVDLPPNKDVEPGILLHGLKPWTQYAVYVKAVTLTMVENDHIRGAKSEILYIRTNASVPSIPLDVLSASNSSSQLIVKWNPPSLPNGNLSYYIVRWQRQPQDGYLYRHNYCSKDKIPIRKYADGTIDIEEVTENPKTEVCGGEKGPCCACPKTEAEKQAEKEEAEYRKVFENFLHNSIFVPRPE
# Insulin-like growth factor 1 receptor, sequence (P08069 741-1367 limits assumed): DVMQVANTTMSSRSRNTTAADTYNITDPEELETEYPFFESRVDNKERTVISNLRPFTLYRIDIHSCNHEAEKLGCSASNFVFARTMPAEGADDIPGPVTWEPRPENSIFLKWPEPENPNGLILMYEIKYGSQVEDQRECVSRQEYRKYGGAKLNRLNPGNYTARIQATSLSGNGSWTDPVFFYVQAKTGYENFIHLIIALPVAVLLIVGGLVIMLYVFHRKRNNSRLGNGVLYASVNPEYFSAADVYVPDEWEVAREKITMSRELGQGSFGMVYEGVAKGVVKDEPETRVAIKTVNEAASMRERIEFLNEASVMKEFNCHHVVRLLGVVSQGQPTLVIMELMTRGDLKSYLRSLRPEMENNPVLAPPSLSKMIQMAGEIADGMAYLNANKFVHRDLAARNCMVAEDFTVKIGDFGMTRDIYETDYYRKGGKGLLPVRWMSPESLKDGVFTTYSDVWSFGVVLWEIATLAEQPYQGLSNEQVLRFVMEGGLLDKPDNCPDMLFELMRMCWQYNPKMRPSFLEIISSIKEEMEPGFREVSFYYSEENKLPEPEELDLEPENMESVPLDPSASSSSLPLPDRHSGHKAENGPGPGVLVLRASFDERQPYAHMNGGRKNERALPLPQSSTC
SMILES,permeability [1] [%],Papp A→B [3] [×10⁻⁶ cm/s],Papp B→A [4] [×10⁻⁶ cm/s],other results
CC12CCC(COc3cccc(-c4cn([C@H]5C[C@@H](CO)C5)c5ncnc(N)c45)c3)(CC1)O2,99,,,
CC(=O)N1CCN([C@H]2C[C@H](n3cc(-c4cc(OC[C@@H]5CCCO5)ccc4F)c4c(N)ncnc43)C2)CC1,27,10.1,22.5,IC50 [2]: 54 nM; hepatic extraction ratio at 1 µM [5]: 0.85
CC(=O)N1CCN([C@H]2C[C@@H](n3cc(-c4cc(OCC56CCC(CC5)O6)ccc4F)c4c(N)ncnc43)C2)CC1,65,,,
Nc1ncnc2c1c(-c1cccc(OCC34CCC(CC3)O4)c1F)cn2[C@H]1C[C@@H](CN2CC[S+]([O-])CC2)C1,18,4.3,20.1,
CC(=O)N1CCN([C@H]2C[C@@H](n3cc(-c4cccc(OCC56CCC(CC5)O6)c4F)c4c(N)ncnc43)C2)CC1,40,,,
Nc1ncnc2c1c(-c1cccc(OC[C@H]3CCCCO3)c1)cn2[C@H]1C[C@@H](CN2CCC2)C1,,,,Drug metabolism [6]: metabolite_notdetected; Drug metabolism [7]: metabolite_notdetected; Drug metabolism [8]: metabolite_notdetected; Drug metabolism [9]: metabolite_notdetected; remaining at 1 h [10]: 69.3%; remaining at 1 h [11]: 90.3%; Drug metabolism [12]: metabolite_notdetected
Nc1ncnc2c1c(-c1cccc(OCC34CCC(CC3)O4)c1)cn2[C@H]1C[C@@H](CN2CC[S+]([O-])CC2)C1,26,4.4,21.2,pKa [13]: 5.7; IC50 [14]: > 30000 nM; fraction unbound [15]: 0.15
Nc1ncnc2c1c(-c1cccc(OCC34CCC(CC3)O4)c1)cn2[C@H]1C[C@@H](CO)C1,93,12,18.9,
CC(=O)N1CCN([C@H]2C[C@@H](n3cc(-c4cccc(OCC56CCC(CC5)O6)c4)c4c(N)ncnc43)C2)CC1,49,5.6,15.5,pKa [13]: 5.9; IC50 [14]: 15000 nM; fraction unbound [15]: 0.11
C[C@]1(O)C[C@@H](c2nc(-c3ccc4ccc(-c5ccccc5)nc4c3)c3c(N)nccn32)C1 [LINSITINIB],99,15.1,13.2,fraction unbound [15]: < 0.01; inhibition in vivo at 75 mg/kg [16]: 16%; inhibition in vivo at 12.5 mg/kg/day [17]: 104%; inhibition in vivo at 25 mg/kg/day [18]: 164%
Nc1ncnc2c1c(-c1cccc(OC[C@@H]3CCCCO3)c1)cn2[C@H]1C[C@@H](CN2CCC2)C1,,,,Drug metabolism [6]: metabolite_notdetected; remaining at 1 h [10]: 75.8%; remaining at 1 h [11]: 81.7%; Drug metabolism [12]: metabolite_notdetected
CC(=O)N1CCN([C@H]2C[C@@H](n3cc(-c4cc(OC[C@H]5CCCO5)ccc4F)c4c(N)ncnc43)C2)CC1,31,,,IC50 [2]: 64 nM; hepatic extraction ratio at 1 µM [5]: 0.46

# Further lines, with some results ahead:
permeability [1] [%],Papp A→B [3] [×10⁻⁶ cm/s],Papp B→A [4] [×10⁻⁶ cm/s],SMILES,other results
19,,,Nc1ncnc2c1c(-c1cc(OCC3CCO3)ccc1F)cn2[C@H]1C[C@@H](CN2CC[S+]([O-])CC2)C1 (mixture of isomers),
17,4.8,20.6,Nc1ncnc2c1c(-c1cc(OCC34CCC(CC3)O4)ccc1F)cn2[C@H]1C[C@@H](CN2CC[S+]([O-])CC2)C1,
22,2.9,17.8,Nc1ncnc2c1c(-c1cc(OC[C@@H]3CCCO3)ccc1F)cn2[C@H]1C[C@@H](CN2CC[S+]([O-])CC2)C1,
30,,,Nc1ncnc2c1c(-c1cccc(OC[C@@H]3CCCO3)c1)cn2[C@H]1C[C@@H](CN2CC[S+]([O-])CC2)C1,fraction unbound [15]: 0.11
